Columns and labels:
proteasomal active sites = target: T1, proteasomal active sites (Homo sapiens, UniProt P28072+P28074+Q99436); experiment: MV-151 proteasome active site inhibition assay; format: cell-based; conditions: U87-MG; Y102 2 μM 24 h; positive control 1 μM Bortezomib and 10 μM MG-132 2 h
T1 construct: endogenous in cells; host or cells: U87-MG
Experimental: U87-MG cells were plated at 500,000 cells/well in 6-well plates and allowed to adhere overnight (Falcon). Medium was removed and replaced with fresh medium containing Y102 or vehicle DMSO and treated for 24 h. As a positive control, one well was treated for 2 h with 1 μM Bz/10 μM MG-132.
Cells were collected after treatment by washing with PBS, harvested with trypsin plus agitation to detach cells, spun down in a centrifuge, and resuspended in PBS to wash. Cells were transferred to 1.5 mL microcentrifuge tubes, pelleted, and resuspended in 20 μL digitonin lysis buffer (50 mM Tris HCl pH 7.5, 250 mM sucrose, 2 mM EDTA, 1 mM ATP, 1 mM DTT, and 0.05% digitonin). Cells were mixed by pipetting, incubated on ice for 20 minutes, and the lysate was cleared by centrifugation. Protein concentrations were determined using a Bradford protein assay (Bio-Rad). 10 μg of protein lysate was incubated for 20 minutes with 20 μM MV-151 in a 37° C. water bath. 4× loading dye was added to the samples and proteins were separated by sodium dodecyl sulfate-polyacrylamide gel electrophoresis (SDS-PAGE) on a 4-15% polyacrylamide gradient gel (Bio-Rad). Gel was imaged on a Typhoon scanner at an excitation of 532 nm and an emission of 560 nm to detect MV-151 fluorescence. Following imaging, proteins were transferred to nitrocellulose. The blot was probed for α-Tubulin as a loading control. […]

sequestosome-1 (p62) = experiment: Immunofluorescence staining for p62; format: cell-based, human; conditions: U87-MG, 24 h; 2 μM Y102, 50 μM HCQ; HCQ and Y102 compared with each other
Experimental: (§1) U87-MG cells were plated at a concentration of 50,000 cells/well onto precoated poly-D-lysine (PDL) coverslips (Neuvitro) in 24-well plates (Falcon) and allowed to adhere overnight. Medium was removed and replaced with treatment-laced media normalized to DMSO, and cells were treated for the indicated timepoints. At the time of collection, cells were washed with PBS and fixed with 4% paraformaldehyde without methanol (EMS) or 100% methanol (Fischer). Coverslips were washed with Tween20-containing PBS (PBST; Fischer). Following permeabilization with 0.5% Triton X-100 in PBS (Fischer), coverslips were blocked for 1 h at room temperature in IF Buffer (0.05% azide, 0.2% Triton X-100, 2% Normal Goat Serum or, for 8-OHG, Normal Donkey Serum). The following primary antibodies were used for 1 hour at room temperature unless specified: AlexaFluor 488 pre-conjugated anti-γ-H2AX (N1-431) mouse monoclonal (30 minutes; BD Biosciences), anti-cleaved caspase 3 (Asp175) rabbit polyclonal (Cell Signaling), anti-SQSTM1/p62 (D-3) mouse monoclonal (Santa Cruz), anti-8-Hydroxyguanosine goat polyclonal (1:200; Millipore), anti-LAMP1 (D4O1S) mouse monoclonal (O/N at 4° C.; Cell Signaling), anti-BNIP3L/Nix (D4R4B) rabbit monoclonal (O/N at 4° C.; Cell Signaling), anti-FLAG (M2) mouse monoclonal (2 hours at 37° C.; Sigma-Aldrich). […]

U251-MG cells = experiment: alamarBlue assay, U251-MG; format: cell-based, human; conditions: up to 3 days, 20 μM to 0.039 μM
Experimental: Cells were plated at 5,000 cells/well in 96-well plates and allowed to adhere overnight. […] Cells were incubated for 72 h. 3 h prior to end of incubation, alamarBlue (Invitrogen) was added to a final concentration of 5% v/v. Fluorescence was read using a Spectramax M2 at an excitation of 544 nm and an emission of 590 nm, and fluorescence was normalized to DMSO. Each experiment contains 4 technical replicates.

erg6Δira2Δ yeast = experiment: Yeast dose response curves, erg6Δira2Δ strain; format: cell-based, Saccharomyces cerevisiae; conditions: 30° C., 18 h, 100 μM to 0.039 μM, normalized to DMSO
Experimental: S. cerevisiae strains were plated at an OD600 of 0.05 in 96-well plates (Falcon) and treated with SC complete containing compound starting at 100 μM, followed by 2-fold serial dilutions to generate a 10-point range of concentrations normalized with DMSO; one row was treated with DMSO as a control. Yeast were incubated for 18 h. To process, the optical density was read using a Spectramax M2 (Molecular Devices) at a wavelength of 600 nm and normalized to DMSO. Each experiment was repeated 2-3 times with 4 technical replicates per experiment.
A high-throughput screen in Saccharomyces cerevisiae lacking a yeast homologue of NF1, IRA2 (ira2Δ) was developed and carried out to identify tool compounds that elicited synthetic lethality with NF1 loss (15). ira2Δ yeast have increased RAS-GTP, which results in increased MAPK and PKA signaling analogous to the pathways that are activated in NF1-deficient Schwann cells (17). […]
More than 5,100 structurally diverse compounds selected from and representative of a >340,000-compound library were screened. […] To determine whether Y102 was also effective in human tumor cells, the efficacy of Y102 was evaluated in two NF1-deficient human cancer cell line models of glioblastoma, U87-MG and U251-MG, and an NF1-deficient Neurofibromatosis type 1-associated MPNST cell line sNF96.2. […]

p21 = experiment: Immunofluorescence of p21 expression and nucleus size; format: cell-based, human; conditions: U87-MG, 2 μM, 24 h
Experimental: as §1

SMILES: Cn1cnnc1S/C=C/C(=O)c1ccc(F)cc1 [Y102]
- inhibition of the proteasomal subunits (MV-151 competitive binding) (proteasomal active sites): not
- p62 expression compared to DMSO (immunofluorescence) (sequestosome-1 (p62)): increased
- sensitivity of NF1-deficient cell line to treatment (U251-MG cells): sensitive
- effect on growth of erg6Δira2Δ yeast (OD600) (erg6Δira2Δ yeast): inhibitory effect
- nucleus size (p21): increase
- p21 expression (p21): increase

— patent US20220326218A1, “COMPOSITION AND METHOD FOR INHIBITING BORC COMPLEX TO TREAT CANCERS WITH NF1 DEFICIENCY AND DYSREGULATED RAS SIGNALING” (THE TRUSTEES OF DARTMOUTH COLLEGE, priority 2019, published 2022)
